We go through eight molecules from ChEMBL document CHEMBL1155920, “Effects of the aryl linker and the aromatic substituent on the anti-HCV activities of aryl diketoacid (ADK) analogues” (Bioorg Med Chem Lett, 2008).

Series [1] in a line: Inhibition of HCV RNA-dependent RNA polymerase. Also on record: species or system Hepacivirus hominis.
Series [2] deals with Hepatitis C virus. Description: Antiviral activity against HCV subgenomic replicon harboring NS5B gene transfected in human Huh7 cells. The series is classed as functional, Hepacivirus hominis. The following applies: Huh-7. A general note: In antiviral work, replicon cells carry a viral genome segment that copies itself.
The test system of series [3] is Hepatitis C virus. Description: Inhibition of recombinant HCV 1b NS5B deltac21 RNA polymerase by scintillator counting. On the set-up: species or system Hepatitis C virus subtype 1b.
Series [4] in a line: Cytotoxicity against human Huh7 cells. The series is classed as cell-based, Huh-7.

Broadly, the IC50 is the midpoint of a concentration-inhibition curve. As usually defined, the EC50 is the concentration that produces a half-maximal response. The low end stands for higher potency in that assay, the high end for lower potency in that assay. The term CC50 denotes the concentration at which the toxic effect on the cells reaches its halfway point. Lower therefore signals harm at low concentration. Turning to `O=C(O)/C(O)=C/C(=O)c1cccc(NCc2ccccc2)c1`, the values for the half-maximal inhibitory concentration (IC50) (in series [1]; in the series on Hepatitis C virus [3]) were 17 µM and 28 µM, respectively. This molecule showed an EC50 with Hepatitis C virus [2] of 28 µM. The half-maximal cytotoxic concentration (CC50) in series [4] was greater than 100 µM.

Take `O=C(O)/C(O)=C/C(=O)c1ccc(OCc2ccccc2)cc1`: the half-maximal effective concentration (EC50) in the series with Hepatitis C virus [2] came out at 0.66 µM. Also, the half-inhibitory concentration (IC50) in the series with Hepatitis C virus [3] amounted to 8.3 µM. Besides, the 50% cytotoxic concentration (CC50) in series [4] is greater than 100 µM.

As for `O=C(O)/C(O)=C/C(=O)c1ccc(OCc2ccc(Cl)cc2)cc1`, the EC50 in the series on Hepatitis C virus [2] was 3.1 µM. In addition, the IC50 with Hepatitis C virus [3] was 1.5 µM. In series [4], this molecule gave a CC50 greater than 100 µM.

Take `O=C(O)/C(O)=C/C(=O)c1cccc(OCc2ccccc2)c1`: the results for the IC50 (in series [1]; with Hepatitis C virus [3]) were 8 µM and 4.6 µM, respectively. For the same molecule, in the series on Hepatitis C virus [2], the concentration for a half-maximal effect (EC50) turned out to be 30 µM. In series [4], this molecule came in with a CC50 greater than 100 µM.

`O=C(O)/C(O)=C/C(=O)c1cccc(OCc2ccc(Cl)cc2)c1` gave a 50% effective concentration (EC50) in the series with Hepatitis C virus [2] greater than 50 µM. For the same molecule, the IC50 in the series on Hepatitis C virus [3] was 28 µM. Further, the CC50 in series [4] is greater than 100 µM.

In turn, `O=C(O)/C(O)=C/C(=O)c1ccccc1OCc1ccc(Cl)cc1` showed a concentration giving a half-maximal response (EC50) in the series with Hepatitis C virus [2] of 0.54 µM. The IC50 in the series on Hepatitis C virus [3] was 2 µM. In series [4], this molecule came in with a CC50 greater than 100 µM.

Turning to `O=C(O)/C(O)=C/C(=O)c1ccccc1OCc1ccccc1`, in the series with Hepatitis C virus [2], a half-maximal response (EC50) required 40 µM. Besides, in the series with Hepatitis C virus [3], the half-maximal inhibitory concentration (IC50) was found to be 30 µM. This molecule also gave a half-maximal cytotoxic concentration (CC50) in series [4] greater than 100 µM.

Take `O=C(O)/C(O)=C/C(=O)c1cccc(NCc2ccc(Cl)cc2)c1`: a half-maximal effect with Hepatitis C virus [2] (EC50) was put at 0.82 µM. For the same molecule, the IC50 in the series with Hepatitis C virus [3] amounted to 0.96 µM. Also, the CC50 in series [4] was greater than 100 µM.
